Like-named read-outs stand apart in the source and are kept apart here.

The nature of data set [1]: electron donor activity (XTT reduction). The format is physicochemical. Conditions: Michaelis-Menten fit, read-out: Kd (concentration at which half maximal electron donor activity is observed). The method, then:
(§1) A sample buffer containing a compound to be tested and a photo-reactive dye (i.e., 10 μM methylene blue, eosin B or erythrosin B) can be continuously illuminated with white light (e.g., about 10 cm away from a halogen 20 W light source) and its spectral characteristics monitored as a function of time (e.g., using a HP8452A diode array spectrophotometer). This can be performed in the presence of oxygen. In general, oxygen dissolved in the solution may decrease the photochemical activity of the dye. To compensate and to increase the sensitivity of the method, a comparatively high light intensity can be used (e.g., in the range of about 1-3 mW/cm^2).
(§2) To determine if a compound is an electron acceptor, an electron donor (e.g., NADH or EDTA) can be added to the sample buffer to supply electrons to the photo-excited dye. The electron donor reduces the concentration of the dye cation radical and maintains an increased concentration of the dye anion radical. To test whether a compound is an electron donor, no separate electron donor is necessary. In both cases, a probe can be added (e.g., NBD-Cl or XTT) to react with superoxide and produce a detectable product. The product can be measured, for example, as an increase in absorbance at 470 nm. The difference between the probe absorbance at 470 nm in the presence of the compound to be tested and a control without the compound can be taken as a measure of redox activity of the compound.
When oxygen is unable to intercept all electrons from the dye anion radical, the dye anion radical may disproportionate and form a colorless compound. This process also may serve as a detectable variable corresponding to the redox activity of the tested compound. A compound with electron-acceptor properties intercepts electrons from dye anion radical and thus slows down the rate of dye photo-bleaching. A compound with electron-donor properties donates electrons to the dye cation radical, thus stabilizing the dye anion radical and increasing the rate of dye photo-bleaching. See also International Publication No. WO 2006/086670. […]
(Tetrazolium assays rely on reduction of a dye to a coloured formazan, in cell work by metabolically active cells.)

For data set [2], the target named is T1, skeletal muscle CRC (skeletal muscle ryanodine receptor RyR1) (Oryctolagus cuniculus, UniProt P11716).
T1 construct: heavy sarcoplasmic reticulum vesicles from fast twitch skeletal muscle fused to planar lipid bilayer; single channel recording
Briefly: single channel activity (open probability) of skeletal muscle Ca2+ release channel reconstituted in planar lipid bilayer. The format is biochemical, rabbit (New Zealand White). The following applies: sub-micromolar 4-MmC; FIG. 5. On the procedure: Fast twitch skeletal muscle sarcoplasmic reticulum was isolated from New Zealand White rabbit, a rich source of skeletal receptors. Following isolation of a crude fraction, the SR was placed on a discontinuous sucrose gradient and a heavy fraction (HSR) was used for all single channel experiments. Ca^2+ release channel reconstitution into a bilayer membrane was carried out by the addition of SR vesicles to the cis side of a planar bilayer lipid membrane. Bilayers, made with a 5:3:2 mixture of phosphatidylethanolamine:phosphatidylserine:phosphatidylcholine (Avanti Polar Lipids) at 50 mg/ml in decane, were formed across a 150 μm hole drilled in a polystyrene cup separating two chambers of 0.7 ml each. The cis chamber contained 400 mM cesium methane sulfonate (CsMS), 50 μM CaCl2, 25 mM HEPES, pH 7.4, while the trans side contained 40 mM CsMS, 25 mM HEPES pH 7.4. SR vesicles, suspended in 0.4-0.6 M sucrose, 400 mM CsMS were added to the cis chamber at a final concentration of 5-20 μg/ml. […] Channel activity was then measured at a holding potential of +25 mV with respect to the trans (ground) side. […] The data were interfaced through a Digidata 1322A 16 bit data Acquisition System (Axon Instruments), stored filtered at 1 kHz and analyzed for single channel activity using pCLAMP software package (version 9.0, Axon Instruments, Burlingame, Calif.).

For data set [3], the target named is T2, RyR1 (skeletal muscle CRC) (Oryctolagus cuniculus, UniProt P11716).
T2 construct: from tissue; host or cells: fast twitch skeletal muscle of New Zealand White rabbit, heavy sarcoplasmic reticulum fraction
In words: Single Ca2+ channel analysis: open probability of skeletal muscle CRC reconstituted in planar bilayer. The format is biochemical, rabbit. On the procedure:
Fast twitch skeletal muscle sarcoplasmic reticulum was isolated from New Zealand White rabbit, a rich source of skeletal receptors. Following isolation of a crude fraction, the SR was placed on a discontinuous sucrose gradient and a heavy fraction (HSR) was used for all single channel experiments. Ca^2+ release channel reconstitution into a bilayer membrane was carried out by the addition of SR vesicles to the cis side of a planar bilayer lipid membrane. Bilayers, made with a 5:3:2 mixture of phosphatidylethanolamine:phosphatidylserine:phosphatidylcholine (Avanti Polar Lipids) at 50 mg/ml in decane, were formed across a 150 μm hole drilled in a polystyrene cup separating two chambers of 0.7 ml each. […] SR vesicles, suspended in 0.4-0.6 M sucrose, 400 mM CsMS were added to the cis chamber at a final concentration of 5-20 μg/ml.

Data set [4] concerns Langendorff perfused rabbit hearts. In words: Dofetilide-induced arrhythmia (LQT2, EADs/TdP) in Langendorff perfused rabbit hearts. The format is in vivo. On the procedure:
(§3) FIG. 12A plots the transmembrane potential (Vm) and intracellular calcium level (Cai) over a 3-second period five minutes after administration of dofetilide (0.5 μM). FIG. 12B plots the transmembrane potential (Vm) and intracellular calcium level (Cai) over a 3-second period ten minutes after administration of dofetilide (0.5 μM).
(§4) EADs are triggered by spontaneous SR Ca^2+ release and increase in severity or frequency leading to TdP after a few minutes.

Data set [5] concerns ventricular myocytes. Conditions: independent of the presence of FKBP12.6; Hunt et al. 2007; cited from earlier work.
For data set [6], the system named is TNF-α female perfused mouse hearts. In words: Ca2+ transients in Langendorff perfused mouse heart (Rhod-2 fluorescence). It is filed as in vivo. Conditions: for effect on Ca2+ transients, in words: nanomolar concentrations. From the text: Ca^2+i transients were monitored in a Langendorff perfused mouse heart using Rhod-2 fluorescence.
It is believed that the faster and larger Ca^2+ transient is due to an increase in Ca^2+ load in the lumen of the SR caused by a reduced Ca^2+ “leak” from the SR.

Data set [7] concerns Langendorff perfused rabbit hearts. In words: arrhythmia induced by dofetilide in Langendorff perfused rabbit hearts. It is filed as in vivo. The following applies: with dofetilide 0.5 μM. The method, then: as §3, §4
Data set [8] has as its target RyR1 (Oryctolagus cuniculus, UniProt P11716). In words: Thiol content of isolated RyR1 by CPM fluorescence. It is filed as biochemical. The following applies: 10 mM tetracaine; control ~47 thiols per monomeric receptor.
Data set [9] concerns the target reactive thiols on the RyR/CRC (Oryctolagus cuniculus, UniProt P11716). Briefly: Redox potential of reactive thiols on RyR from rate of ryanodine binding vs solution redox potential. The following applies: tetracaine 25 μM; control (20 μM Ca2+) −160.3±3.2 mV. The format is biochemical.
Data set [10] in a line: Electron donor activity: initial rate of XTT reduction. Conditions: initial rate of XTT reduction fit to Michaelis-Menton equation; read-out: Kd, concentration at which half maximal electron donor activity is observed. The format is physicochemical. The method, then: as §1
as §2, with “In both cases, a probe can be added (e.g., NBD-Cl or XTT) to react with superoxide and produce a detectable product.” left out, “compound. […]” for “compound.”

[11] abbreviates: skeletal muscle CRC, four parameter logistic curve fit, FIG. 2, read-out: IC50, concentration required to half maximally inhibit single channel activity.

T2 sequence (P11716 whole entry): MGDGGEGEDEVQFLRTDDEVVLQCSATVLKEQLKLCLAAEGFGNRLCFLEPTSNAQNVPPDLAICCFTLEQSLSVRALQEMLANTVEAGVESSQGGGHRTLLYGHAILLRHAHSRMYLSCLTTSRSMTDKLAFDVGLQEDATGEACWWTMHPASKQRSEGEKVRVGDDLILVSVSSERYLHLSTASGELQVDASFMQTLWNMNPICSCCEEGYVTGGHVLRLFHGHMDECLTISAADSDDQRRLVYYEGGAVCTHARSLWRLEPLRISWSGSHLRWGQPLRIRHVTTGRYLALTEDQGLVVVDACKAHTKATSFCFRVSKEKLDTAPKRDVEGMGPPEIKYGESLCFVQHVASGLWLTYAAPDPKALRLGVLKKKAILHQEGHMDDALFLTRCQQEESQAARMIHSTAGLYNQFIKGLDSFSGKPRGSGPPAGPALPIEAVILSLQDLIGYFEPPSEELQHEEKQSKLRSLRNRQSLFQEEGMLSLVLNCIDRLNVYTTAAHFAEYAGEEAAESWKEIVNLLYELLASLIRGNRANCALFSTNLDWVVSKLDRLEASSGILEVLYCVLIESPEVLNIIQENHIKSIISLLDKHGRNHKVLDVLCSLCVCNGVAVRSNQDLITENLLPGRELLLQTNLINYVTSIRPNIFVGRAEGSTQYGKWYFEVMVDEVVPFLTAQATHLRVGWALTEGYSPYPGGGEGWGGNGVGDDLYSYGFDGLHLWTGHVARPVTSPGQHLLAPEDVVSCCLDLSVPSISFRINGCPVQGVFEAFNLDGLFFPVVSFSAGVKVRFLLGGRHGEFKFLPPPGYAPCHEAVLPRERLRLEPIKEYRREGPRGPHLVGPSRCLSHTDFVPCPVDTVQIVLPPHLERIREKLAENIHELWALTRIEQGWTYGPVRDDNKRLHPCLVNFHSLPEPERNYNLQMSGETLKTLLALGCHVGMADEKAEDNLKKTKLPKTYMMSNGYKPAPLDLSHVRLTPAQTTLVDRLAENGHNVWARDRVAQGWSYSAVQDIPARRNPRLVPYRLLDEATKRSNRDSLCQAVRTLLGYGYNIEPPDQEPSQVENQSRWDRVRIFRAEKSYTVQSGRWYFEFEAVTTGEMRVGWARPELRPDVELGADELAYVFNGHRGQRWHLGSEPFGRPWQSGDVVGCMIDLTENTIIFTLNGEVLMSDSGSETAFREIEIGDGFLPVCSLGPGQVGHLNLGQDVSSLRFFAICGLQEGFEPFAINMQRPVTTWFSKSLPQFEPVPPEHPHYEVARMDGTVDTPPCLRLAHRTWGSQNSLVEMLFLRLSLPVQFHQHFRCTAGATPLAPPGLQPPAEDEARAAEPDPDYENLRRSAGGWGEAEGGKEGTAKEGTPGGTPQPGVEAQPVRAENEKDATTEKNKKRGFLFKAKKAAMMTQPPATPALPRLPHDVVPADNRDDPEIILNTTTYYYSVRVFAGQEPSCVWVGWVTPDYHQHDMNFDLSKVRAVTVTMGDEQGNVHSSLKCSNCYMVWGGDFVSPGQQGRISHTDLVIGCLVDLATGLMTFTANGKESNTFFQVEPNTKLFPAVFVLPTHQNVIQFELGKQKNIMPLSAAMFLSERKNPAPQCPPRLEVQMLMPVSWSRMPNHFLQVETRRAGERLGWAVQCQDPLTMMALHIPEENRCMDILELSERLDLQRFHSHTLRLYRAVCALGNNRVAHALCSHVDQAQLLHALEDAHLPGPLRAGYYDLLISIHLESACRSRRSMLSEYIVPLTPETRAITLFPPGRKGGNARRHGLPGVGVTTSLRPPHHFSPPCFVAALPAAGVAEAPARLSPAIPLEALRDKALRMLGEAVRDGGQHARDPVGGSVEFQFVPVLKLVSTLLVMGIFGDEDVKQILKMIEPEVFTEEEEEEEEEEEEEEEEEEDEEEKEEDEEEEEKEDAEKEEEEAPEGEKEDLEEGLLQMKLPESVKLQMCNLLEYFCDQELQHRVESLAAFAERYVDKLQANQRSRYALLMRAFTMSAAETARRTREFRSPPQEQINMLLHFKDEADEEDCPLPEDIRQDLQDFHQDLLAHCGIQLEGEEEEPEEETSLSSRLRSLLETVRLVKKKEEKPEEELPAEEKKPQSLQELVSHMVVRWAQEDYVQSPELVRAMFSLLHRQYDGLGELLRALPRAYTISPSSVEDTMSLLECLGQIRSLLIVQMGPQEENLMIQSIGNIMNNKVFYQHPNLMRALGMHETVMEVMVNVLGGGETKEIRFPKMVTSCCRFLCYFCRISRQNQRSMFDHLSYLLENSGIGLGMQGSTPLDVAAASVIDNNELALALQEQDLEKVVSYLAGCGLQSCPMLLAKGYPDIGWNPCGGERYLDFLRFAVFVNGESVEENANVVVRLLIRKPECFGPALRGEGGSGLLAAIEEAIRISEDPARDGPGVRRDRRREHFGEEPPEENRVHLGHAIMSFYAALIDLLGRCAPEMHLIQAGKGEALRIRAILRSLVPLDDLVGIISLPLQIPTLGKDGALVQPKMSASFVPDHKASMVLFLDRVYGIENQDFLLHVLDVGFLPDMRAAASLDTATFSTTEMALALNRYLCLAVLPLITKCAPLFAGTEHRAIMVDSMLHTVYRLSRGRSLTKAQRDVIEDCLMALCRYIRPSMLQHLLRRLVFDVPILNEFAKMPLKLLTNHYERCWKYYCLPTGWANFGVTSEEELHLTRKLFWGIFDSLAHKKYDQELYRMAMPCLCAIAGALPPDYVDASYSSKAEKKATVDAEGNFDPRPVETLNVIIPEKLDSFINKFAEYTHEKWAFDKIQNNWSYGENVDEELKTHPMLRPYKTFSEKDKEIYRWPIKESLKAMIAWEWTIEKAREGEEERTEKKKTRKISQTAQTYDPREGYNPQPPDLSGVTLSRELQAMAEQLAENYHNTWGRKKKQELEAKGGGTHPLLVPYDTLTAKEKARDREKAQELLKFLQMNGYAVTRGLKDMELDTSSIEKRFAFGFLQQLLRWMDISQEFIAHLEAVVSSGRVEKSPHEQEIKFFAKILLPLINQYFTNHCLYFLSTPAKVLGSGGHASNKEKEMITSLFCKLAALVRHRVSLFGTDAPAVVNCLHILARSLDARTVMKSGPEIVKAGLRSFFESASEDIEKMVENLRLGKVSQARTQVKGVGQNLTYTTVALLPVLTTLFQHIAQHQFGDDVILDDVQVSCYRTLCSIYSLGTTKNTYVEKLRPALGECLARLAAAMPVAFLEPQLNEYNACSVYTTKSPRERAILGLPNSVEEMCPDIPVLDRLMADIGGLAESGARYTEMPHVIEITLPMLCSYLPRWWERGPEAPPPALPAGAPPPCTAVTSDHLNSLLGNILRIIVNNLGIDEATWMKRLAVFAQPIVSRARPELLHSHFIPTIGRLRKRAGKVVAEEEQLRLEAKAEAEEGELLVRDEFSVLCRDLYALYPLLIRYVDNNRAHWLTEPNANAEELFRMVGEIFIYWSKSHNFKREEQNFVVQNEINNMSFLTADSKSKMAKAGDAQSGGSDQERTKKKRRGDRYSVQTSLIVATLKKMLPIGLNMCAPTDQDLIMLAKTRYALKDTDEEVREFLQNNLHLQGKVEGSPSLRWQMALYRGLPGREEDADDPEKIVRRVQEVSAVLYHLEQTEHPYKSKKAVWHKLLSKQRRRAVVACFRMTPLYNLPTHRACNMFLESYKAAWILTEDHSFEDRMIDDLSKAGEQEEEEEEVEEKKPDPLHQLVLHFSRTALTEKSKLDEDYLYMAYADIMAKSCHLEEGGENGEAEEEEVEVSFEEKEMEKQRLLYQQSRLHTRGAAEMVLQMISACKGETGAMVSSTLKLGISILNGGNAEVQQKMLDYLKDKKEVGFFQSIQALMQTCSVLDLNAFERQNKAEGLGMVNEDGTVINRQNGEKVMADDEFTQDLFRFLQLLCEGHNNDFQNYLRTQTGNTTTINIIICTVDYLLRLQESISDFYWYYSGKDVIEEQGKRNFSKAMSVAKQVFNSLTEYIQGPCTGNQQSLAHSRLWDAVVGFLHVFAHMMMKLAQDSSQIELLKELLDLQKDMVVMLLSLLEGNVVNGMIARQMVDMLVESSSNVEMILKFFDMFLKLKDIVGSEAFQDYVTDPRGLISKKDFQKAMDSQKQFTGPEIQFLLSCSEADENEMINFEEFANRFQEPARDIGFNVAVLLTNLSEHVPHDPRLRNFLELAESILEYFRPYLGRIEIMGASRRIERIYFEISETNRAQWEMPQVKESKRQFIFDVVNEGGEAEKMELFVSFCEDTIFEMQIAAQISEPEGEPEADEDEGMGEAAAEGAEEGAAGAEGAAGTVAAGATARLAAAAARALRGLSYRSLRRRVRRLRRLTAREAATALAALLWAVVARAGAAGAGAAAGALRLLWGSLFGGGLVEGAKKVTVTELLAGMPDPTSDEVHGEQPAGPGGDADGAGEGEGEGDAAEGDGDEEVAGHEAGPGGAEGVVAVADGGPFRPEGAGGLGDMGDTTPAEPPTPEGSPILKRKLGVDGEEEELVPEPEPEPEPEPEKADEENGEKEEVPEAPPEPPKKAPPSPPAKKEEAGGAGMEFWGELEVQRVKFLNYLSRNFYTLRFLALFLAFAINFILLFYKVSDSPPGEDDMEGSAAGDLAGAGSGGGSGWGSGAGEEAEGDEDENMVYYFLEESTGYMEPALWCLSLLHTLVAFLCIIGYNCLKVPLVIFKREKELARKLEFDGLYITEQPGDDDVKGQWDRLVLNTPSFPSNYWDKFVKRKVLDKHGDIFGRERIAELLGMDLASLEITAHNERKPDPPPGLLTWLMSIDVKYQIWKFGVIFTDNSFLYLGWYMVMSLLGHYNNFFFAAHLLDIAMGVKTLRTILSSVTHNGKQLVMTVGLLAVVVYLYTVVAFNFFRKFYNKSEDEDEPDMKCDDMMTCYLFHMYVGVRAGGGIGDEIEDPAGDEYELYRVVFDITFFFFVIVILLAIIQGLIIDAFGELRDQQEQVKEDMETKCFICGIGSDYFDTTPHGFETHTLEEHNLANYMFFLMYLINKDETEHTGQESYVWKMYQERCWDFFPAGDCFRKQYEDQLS
T2 sequence (P62943 2-108 partner limits assumed): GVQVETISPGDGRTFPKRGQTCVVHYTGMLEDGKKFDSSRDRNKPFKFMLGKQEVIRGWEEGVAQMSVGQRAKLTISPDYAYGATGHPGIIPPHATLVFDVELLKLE
RyR1, sequence (P11716 whole entry): as the sequence (P11716 whole entry) above

One may read the Ki as the dissociation constant of the complex between target and ligand, obtained from inhibition or displacement. `COc1ccc(O)cc1C` [4-MmC, 4-methoxy-3-methylphenol]: the Kd in data set [1] (listed as 4-methoxy-3-methyl phenol) was 13 µM; in data set [1], approximately 13 µM. For the same compound, in [2], the “decrease of open probability (Po) at sub-micromolar concentrations” value is recorded as “significantly decreased the open probability (Po)”. In addition, the “open probability Po” value in data set [3] (+10 μM 4-MmC after 6 mM caffeine (Po=0.071), 50 μM Ca2+, FIG. 3C) was found to be 0.015. In data set [3] (skeletal muscle CRC, FIG. 5, unit inferred, read-out: Ki for inhibition of single channel activity), the Ki is approximately 0.5 µM. Besides, the “effect on open probability (Po), in words” value in data set [3] (sub-micromolar concentrations, FIG. 5) is recorded as “significantly decreased”.

Consider `CN(CCOc1ccc(NS(C)(=O)=O)cc1)CCc1ccc(NS(C)(=O)=O)cc1` [Dofetilide, dofetilide, reference compound], for which the “time to elicit EADs” value in data set [4] (dofetilide 0.5 μM) amounted to 5 min. Also, the “pro-arrhythmic effect, in words” value in [4] (dofetilide 0.5 μM, panel B, ten minutes) is “promotes TdP”.

In the case of `COc1ccc2c(c1)CN(C(=O)CCN1CCC(Cc3ccccc3)CC1)CCS2` [K201, reference compound], the Kd in data set [1] is 28 µM. For the same compound, in [5], the “spontaneous Ca2+ release” value is “suppresses spontaneous Ca^2+ release in ventricular myocytes”.

With `COc1ccc2c(c1)CN(C(=O)CCN1CCC(Cc3ccccc3)CC1)CCS2` [K201], in [6] (mouse, in vivo), the “concentration at which amplitude of Ca2+ transients was adversely affected” value lay in the range of 10 to 25 µM. For the same compound, the “effect on Ca2+ transients, in words” value in data set [6] is “enhance Ca^2+ transients”. In data set [3] (10 μM K201 after 20 μM FK506), the “effect on channel activity in the absence of FKBP12, in words” value was “still inhibited channel activity”. Besides, the “open probability Po” value in data set [3] (+5 μM K201, 20 μM Ca2+, control Po=0.107, FIG. 8B) came out at 0.060; in [3] (+10 μM K201, 20 μM Ca2+, control Po=0.107, FIG. 8C), 0.047; in [3] (+10 μM K201 on FK506-treated (20 μM) channel, Po=0.106 before, FIG. 9C) it was 0.009. Also, the IC50 is approximately 4 µM in data set [3] (IC50 for K201 inhibition of RyR1, FIG. 2, as restated in Example 4, unit inferred) and 3.98 ± 0.79 µM in data set [3] (setting [11]).

Consider `COc1ccc2c(c1)CN(C(=O)CCN1CCC(Cc3ccc4c(c3)OCO4)CC1)CCS2` [[1,3]dioxole derivative of K201, 3-(4-(benzo[d][1,3]dioxol-5-ylmethyl)piperidin-1-yl)-1-(7-methoxy-2,3-dihydrobenzo[f][1,4]thiazepin-4(5H)-yl)propan-1-one], for which the “effect on arrhythmias induced by dofetilide, in words” value in data set [4] (1 μM test compound, dofetilide 0.5 μM) was “reverse arrhythmias”. In addition, the “effect on EADs and AP shape, in words” value in data set [4] (1.0 μM, dofetilide 0.5 μM, adult female rabbit hearts paced at 1.2 second intervals) was “all EADs were suppressed”. Besides, the “duration of protective effects” value in data set [4] (continuous perfusion with dofetilide and test compound) is 20 min. Further, in [6] (high concentrations), the “effect on amount of SR Ca2+ release compared to controls, in words” value is “did not reduce the amount of SR Ca^2+ release”. Moreover, the “concentration causing enhancement of fractional change in Rhod-2 fluorescence (Ca2+ transient)” value in [6] (lowest concentration stated (as low as)) came out at 10 nM. Moreover, the “effect on Ca2+ transients, in words” value in data set [6] is recorded as “enhance Ca^2+ transients”. In addition, the IC50 in [3] (setting [11]) was 0.24 ± 0.05 µM. The “potency of inhibition of single channel activity relative to K201” value in [3] (skeletal muscle CRC, ratio of IC50 values) is recorded as “about 16 times”.

`COc1ccc2c(c1)CN(C(=O)CCN1CCC(Cc3ccc4c(c3)OCO4)CC1)CCS2` [[1,3]dioxole derivative, 3-(4-(benzo[d][1,3]dioxol-5-ylmethyl)piperidin-1-yl)-1-(7-methoxy-2,3-dihydrobenzo[f][1,4]thiazepin-4(5H)-yl)propan-1-one]: in [7] (1.0 μM), the action potential shape result is “the normal AP shape was restored”; the “elimination of EADs and delayed afterdepolarizations (DADs)” value was “eliminated both EADs and delayed afterdepolarizations (DADs)”. In addition, the “reversal of arrhythmias induced by dofetilide” value in data set [7] (1 μM, FIG. 12) was “can reverse arrhythmias induced by dofetilide”.

`CCCCNc1ccc(C(=O)OCCN(C)C)cc1` [tetracaine]: the “number of thiols reacting with CPM” value in [8] is approximately 70 per monomer. Besides, the “redox potential of the reactive thiols” value in data set [9] is recorded as −147.7±2.8 mV.

For “FKBP12: FK506 binding protein (calstabin1) that binds RyR1; endogenous electron donor”, the Kd in data set [10] is approximately 12.4 µM.
